Reference: patent US20110251220A1, “Pharmaceutical compositions comprising gamma secretase modulators” (priority 2008, published 2011)

Key:
Type in all cases: cell-based, human
[1] = system: MSC; test: Viability assay, MSC
Protocol: For assaying proliferation/viability of cells CellTiter-Glo Luminescent Cell Viability Assay (Promega, Mannheim, Germany) was used. In this assay the number of viable cells at a given time point is determined by quantification of ATP present, which serves as a measure of metabolically active cells. The assay was carried out according to manufacturer's protocol. Briefly, cells were plated in 96-well plates at 10,000 cells per well in 100 μl medium and treated with indicated amounts of GSI15, with DMSO as solvent control or left untreated. Each treatment was done in four independent replicates in different wells. 24 h and 48 h after start of treatment 30 μl per well were transferred into an opaque-walled plate and lysed using CellTiter-Glo solution. Luminescence was recorded and integrated for two seconds per well. Average values were calculated and normalized to the respective untreated sample.

[2] = system: Hes-1; test: Quantitative RT-PCR of Notch1 target gene Hes-1 in OPM-2 cells; settings: OPM-2 cells treated with GSI15
Protocol: Quantitative real-time reverse transcription-PCR (RT-PCR) analysis was performed using the following primer/probe sets: human Hes-1 (forward—[…], reverse—[…], probe—FAM-[…]-TAMRA) human TRAP5 (forward—[…], reverse—[…], probe FAM-[…]-TAMRA), human beta2-microglobulin (forward—ccc cca ctg aaa aag atg ag, reverse—atc caa tcc aaa tgc ggc, probe—FAM-CCTGCCGTGTGAACCATGTGACTTT-TAMRA) served as normalizer. Total RNA was extracted from MM cells, human osteoclasts or human osteoblasts using RNeasy Mini Kit (Qiagen, Hilden, Germany) following the manufacturer's instructions. For the RT-PCR reaction SuperScript™ III Platinum® One-Step Quantitative RT-PCR System (Invitrogen, Karlsruhe, Germany) was used. 50 ng total RNA were used per reaction, each RNA sample was analyzed in three replicates. PCR conditions (40 cycles) were the following: reverse transcription at 50° C. for 30 minutes, initial denaturation at 95° C. for 10 minutes, followed by 40 cycles of 45 seconds denaturation at 95° C. and 60 seconds annealing/extension at 62° C. Amplification of the house-keeping gene beta2-microglobulin was used to normalize the expression data. Normalized mRNA expression data were then calculated as values relative to the respective untreated sample.

[3] = system: OPM-2 cells; test: Apoptosis by AnnexinV-FITC/PI staining, OPM-2
Protocol: (§1) The compound according to example 1, hereinafter referred to as GSI15, (compound RH02015SC, Maybridge, Acros Organics, Geel, Belgium) was freshly dissolved as 26 mM stock solution in Dimethylsulfoxide (DMSO). Multiple myeloma therapeutics used were melphalan (marketed as Alkeran®, GlaxoSmithKline, Munich, Germany) and bortezomib (marketed as Velcade®, Janssen-Cilag, Neuss, Germany). Melphalan was freshly dissolved at 10 mg/ml in 0.9% NaCl-solution. Bortezomib was freshly dissolved at 100 ng/ml in 0.9% NaCl solution. Gamma Secretase Inhibitor (GSI) treatment for apoptosis assessment by AnnexinV/PI staining, cell cycle analysis and coculture experiments was performed in 6-well plates. GSI15 stock solution was added directly to the cell suspension. GSI treatment for assaying proliferation was performed in 96-well plates. 10,000 cells per well were seeded in 50 μl medium per well before 50 μl of a 2× solution of GSI15 prediluted in medium were added per well. Melphalan and bortezomib treatment as well as their combination with GSI15 for assaying apoptosis by AnnexinV/PI staining was done in 6-well plates. All inhibitors were added directly to the cells in 6-well plates.
For cell cycle analysis 2×10^5 cells were spun down, medium was aspirated and cells washed with PBS. Cells were then resuspended in 250 μl PBS. 1 ml ice-cold 70% ethanol was added, followed by overnight incubation at −20° C. Cells were spun down, the pellet washed with PBS and then resuspended in 200 μl PBS containing 0.15 mg/ml RNaseA and 30 μg/ml propidium iodide (PI). After 10 minutes incubation in the dark at room temperature, cells were analyzed by flow cytometry. The amount of apoptotic cells was determined by AnnexinV/propidium iodide staining using Human AnnexinV-FITC Kit (Bender Medsystems, Vienna, Austria), according to manufacturer's protocol. Briefly, 2×10^5 cells were spun down and washed with PBS, followed by 10 minutes incubation in binding buffer containing AnnexinV-FITC conjugate. Cells were then spun down again, resuspended in binding buffer containing PI and analyzed by flow cytometry.

[4] = system: OPM-2 cells; test: Cell cycle analysis (propidium iodide), sub-G1 fraction, OPM-2; settings: OPM-2, after 72 h
Protocol: as §1, with “10,000 cells per well were seeded in 50 μl medium per well before 50 μl of a 2× solution of GSI15 prediluted in medium were added per well. Melphalan and bortezomib treatment as well as their combination with GSI15 for assaying apoptosis by AnnexinV/PI staining was done in 6-well plates. All inhibitors were added directly to the cells in 6-well plates.” left out
For cell cycle analysis 2×10^5 cells were spun down, medium was aspirated and cells washed with PBS. […] After 10 minutes incubation in the dark at room temperature, cells were analyzed by flow cytometry. The amount of apoptotic cells was determined by AnnexinV/propidium iodide staining using Human AnnexinV-FITC Kit (Bender Medsystems, Vienna, Austria), according to manufacturer's protocol. […] Cells were then spun down again, resuspended in binding buffer containing PI and analyzed by flow cytometry.

## CC(C)c1ccc(S(=O)(=O)Nc2cccnc2Oc2ccc(Cl)cc2)cc1 [Example 1, N-(2-(4-chlorophenoxy)pyridin-3-yl)-4-isopropylbenzenesulfonamide]
[1]
  viability: no difference between untreated and GSI15 treated
[2]
  Hes-1 expression (Notch1 target gene): dose-dependently downregulated
[3]; OPM-2, 40 μM GSI15 alone, 24 h
  apoptosis induction: did not induce apoptosis
[3]; OPM-2, 48 h of treatment
  AnnexinV-FITC/PI staining: decrease of OPM-2 cells negative for both Annexin V-FITC- and PI-staining
[3]; OPM-2 alone, 60 μM GSI15, 48 h
  overall amount of apoptotic cells: 29%
[4]
  sub-G1 fraction: increase in the sub-G1 fraction
